Test results reported in article PMC11899342, “Novel Triazeneindole Antibiotics: Synthesis and Hit-to-Lead Optimization” (International Journal of Molecular Sciences, 2025).

Experiments:
[1] = Single-dose acute toxicity, intragastric administration; format: in vivo, rat; details: both sexes, Wistar, rat, in vivo, po; rats, intragastric, single dose; read-out: maximum tolerated dose
Method: Before administration, the BX-SI043 substance was resuspended in a 1% starch solution. The animals in the treatment groups received suspensions intragastrically in doses of 2000 mg/kg (administered in two equal doses, with a 30–40 min interval), 1000 mg/kg, 600 mg/kg, and 300 mg/kg (administered in single doses).
The animals were monitored daily for any abnormalities. On the 2nd, 7th, and 13th days after administration, the animals were clinically evaluated and weighed, and the consumption of feed and water were measured. On the 14th day, the behavior of the animals was evaluated. On the 15th day, the animals were euthanized, and the lungs (with trachea), heart, thymus, liver, kidneys, spleen, stomach, small intestine, colon, brain, adrenal glands, and testes/ovaries were fixed in 10% neutral formalin for histological evaluation.

Stability in rat plasma = format: in vitro ADME; details: 37 °C, 1 μM
Method: For the experiment, human and rat plasma (SD) was thawed at room temperature and centrifuged for 5 min at 1500× g. Eucatropine (Sigma-Aldrich, USA), which is unstable in human and rat plasma, was used as a control compound.
For stability evaluation, 3 μL of 100X solutions of the tested or control compound (0.1 mM) was added to 297 μL of the corresponding plasma (prewarmed to 37 °C) to a final concentration of 1 μM. The plasma samples were incubated with the test and control compounds in the 0.65 mL microtubes at 37 °C and under 300 rpm rotation. After 15, 30, 60, and 240 min, 30 μL aliquots were taken into 1.1 mL microtubes with 180 μL of chilled acetonitrile with an internal standard of 200 ng/mL tolbutamide (Fluka). The tubes were stirred and kept at 4 °C for 15 min, then centrifuged at 1500× g for 10 min. A total of 200 μL of the supernatants was transferred into microtubes and stored at −70 °C until UPLC–MS/MS analysis.

With `CCOC(=O)c1[nH]c2cc(F)ccc2c1/N=N/N1CCCC1` [BX-SI043, Ethyl (E)-6-fluoro-3-(pyrrolidin-1-yldiazenyl)-1H-indole-2-carboxylate] the MTD at 14 days [1] was 600 mg/kg and the “remaining in rat plasma after 15 min” value (Stability in rat plasma) was 1.7%.
